The values that follow are results of earlier work, collected in paper PMC7993274 (Clinical and Translational Science, 2020).

Molecules are shown by their SMILES.

The conditions of series [1]: patients with rheumatoid arthritis (N = 3,492); cited from earlier work.
The conditions of series [2]: levels peaking 2 weeks post‐treatment; cited from earlier work.

For the compound `CCS(=O)(=O)N1CC(CC#N)(n2cc(-c3ncnc4[nH]ccc34)cn2)C1` [baricitinib], the “venous thromboembolism incidence rate” value in series [1] is reported as 0.5 per 100 patient‐years. In addition, in series [2], the “effect on platelet counts” value is reported as “transiently increase platelet counts”.
